Consider 11 compounds from patent US20250289789A1, “REVERSIBLE LYSINE COVALENT MODIFIERS OF CDK2 AND USES THEREOF” (Terremoto Biosciences, Inc., priority 2023, published 2025).

pIC50: −log10 of the molar value. Where “and” joins values, the source holds several entries; their conditions need not be identical. Equal entries are not always repeated. Entries after “also recorded” stand apart in the source; their conditions may differ. Where two headings read alike, the source gives them in different places.

The target of assay [1] is T1, CDK4-NanoLuc fusion with CCND1 in 293T or 293 cells (Homo sapiens, UniProt P11802).
T1 construct: host or cells: 293T (ATCC CRL-3216) or 293 (ATCC CRL-1573)
T1 sequence (P11802 whole entry, the tested form may be a part): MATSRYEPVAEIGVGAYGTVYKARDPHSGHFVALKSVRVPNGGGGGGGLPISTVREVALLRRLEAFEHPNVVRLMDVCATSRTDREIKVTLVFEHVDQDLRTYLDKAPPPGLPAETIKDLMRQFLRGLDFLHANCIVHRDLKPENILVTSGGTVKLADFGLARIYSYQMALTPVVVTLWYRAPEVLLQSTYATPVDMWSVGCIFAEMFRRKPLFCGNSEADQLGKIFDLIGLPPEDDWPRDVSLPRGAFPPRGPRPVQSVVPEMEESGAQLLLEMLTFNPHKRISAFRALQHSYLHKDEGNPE
T1 sequence (P24385 whole entry partner, the tested form may be a part): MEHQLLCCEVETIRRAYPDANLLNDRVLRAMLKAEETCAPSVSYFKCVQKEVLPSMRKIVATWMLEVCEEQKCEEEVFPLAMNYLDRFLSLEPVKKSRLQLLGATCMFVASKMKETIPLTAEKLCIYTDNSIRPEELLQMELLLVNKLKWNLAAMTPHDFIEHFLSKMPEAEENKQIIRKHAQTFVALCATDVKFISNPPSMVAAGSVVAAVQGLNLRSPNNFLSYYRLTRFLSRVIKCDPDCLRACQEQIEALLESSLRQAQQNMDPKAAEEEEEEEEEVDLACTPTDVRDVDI
The experiment in a line: NanoBRET Target Engagement (TE) Intracellular Kinase Assay, CDK4/CCND1. It is filed as cell-based. The settings on record: NanoBRET TE intracellular kinase assay, 2-hour incubation, read-out: NanoBRET-CDK4/D1 IC50. Background: In BRET a luciferase serves as donor, and the signal depends on an acceptor being close.

The target of assay [2] is T2, CDK2-NanoLuc fusion with CCNE1 in 293T or 293 cells (Homo sapiens, UniProt P24941).
T2 construct: host or cells: 293T (ATCC CRL-3216) or 293 (ATCC CRL-1573)
The experiment in a line: NanoBRET Target Engagement (TE) Intracellular Kinase Assay, CDK2/CCNE1. The settings on record: 2-hour incubation. In kind it is cell-based.

Assay [3] concerns Phospho-Rb Ser807/811 in OVCAR3 cells. Briefly: OVCAR3 Phospho-Rb Ser807/811 HTRF assay. It is filed as cell-based. The settings on record: Homo sapiens, OVCAR-3, 1 h, read-out: pRb-OVCAR3 IC50. On the procedure: Cells were trypsinized and resuspended in 1 mM hydroxyurea (Sigma; H8627), 90% RPMI and 10% fetal bovine serum. […] Dose response curve normalized to DMSO control was plotted using four-parameter logistic model for IC50 calculation.

Another assay addresses pCDK2-CCNE1 proteins (Homo sapiens, UniProt P24941). Briefly: Identification of covalent binding by intact mass spectrometry, with and without competitor PF-06873600. The settings on record: for Observed mass value of the covalent complex between compound and CDK2 protein: intact mass spectrometry after borohydride reduction, unmodified CDK2 34096-34097 Da; for Covalent complex formation with CDK2 protein (intact mass spectra after sodium borohydride reduction) / Binding pocket by competition: complex formation in presence of molar excess PF-06873600: pCDK2-CCNE1 1 μM, compound 1.5 μM; for Covalent complex formation with CDK2 protein (intact mass spectra after sodium borohydride reduction): 1 hour at room temperature or 37° C., no competitor; for Binding pocket by competition: complex formation in presence of molar excess PF-06873600: competitor PF-06873600 20 μM. The method, then: pCDK2-CCNE1 proteins (1 μM) were treated with a compound (1.5 μM) from Table 4 for 1 hour at room temperature or 37° C., with and without competitor molecule PF-06873600 (20 μM final concentration) as a specificity control. As used herein, the competitor molecule is
As used herein, the competitor molecule is 6-(difluoromethyl)-8-((1R,2R)-2-hydroxy-2-methylcyclopentyl)-2-((1-(methylsulfonyl)piperidin-4-yl)amino)pyrido[2,3-d]pyrimidin-7(8H)-one (PF-06873600). Reversible imines were captured by reductive amination with the addition of 5 mM sodium borohydride at room temperature for 5 min. Reduction reactions were quenched by diluting the sample in equal volume of 1% trifluoroacetic acid (v/v) in acetonitrile, then analyzed by LC-MS. Deconvoluted monoisotopic intensities of unmodified and compound-modified mass peaks were compared.
FIGS. 1A to 1P provide intact mass spectra for pCDK2-CCNE1 proteins after incubation with compounds of the present disclosure and subsequent sodium borohydride reduction. […] Further, FIGS. 1A to 1P each provide intact mass spectra following the incubation of pCDK2-CCNE1 proteins with a compound of the present disclosure both in the absence of a competitor molecule (i.e., PF-06873600, a molecule known to bind to and inhibit the function of CDK2); and in the presence of a significant stoichiometric excess of a competitor molecule PF-06873600.
FIGS. 2A to 2N provide intact mass spectra for pCDK2-CCNE1 proteins after incubation with compounds of the present disclosure and subsequent sodium borohydride reduction.

The target in assay [4] is T3, CDK1-NanoLuc fusion with CCNB1 in 293T or 293 cells (Homo sapiens, UniProt P06493).
T3 construct: host or cells: 293T (ATCC CRL-3216) or 293 (ATCC CRL-1573)
T3 sequence (P06493 whole entry, the tested form may be a part): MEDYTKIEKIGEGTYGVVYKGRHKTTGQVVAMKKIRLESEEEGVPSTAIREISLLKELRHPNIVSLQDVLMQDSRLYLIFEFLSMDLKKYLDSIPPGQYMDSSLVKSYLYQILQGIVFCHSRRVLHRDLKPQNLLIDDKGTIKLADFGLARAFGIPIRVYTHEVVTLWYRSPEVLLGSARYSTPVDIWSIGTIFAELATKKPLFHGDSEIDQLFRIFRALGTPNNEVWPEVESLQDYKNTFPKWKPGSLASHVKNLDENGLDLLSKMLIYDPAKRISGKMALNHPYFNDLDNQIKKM
T3 sequence (P14635 whole entry partner, the tested form may be a part): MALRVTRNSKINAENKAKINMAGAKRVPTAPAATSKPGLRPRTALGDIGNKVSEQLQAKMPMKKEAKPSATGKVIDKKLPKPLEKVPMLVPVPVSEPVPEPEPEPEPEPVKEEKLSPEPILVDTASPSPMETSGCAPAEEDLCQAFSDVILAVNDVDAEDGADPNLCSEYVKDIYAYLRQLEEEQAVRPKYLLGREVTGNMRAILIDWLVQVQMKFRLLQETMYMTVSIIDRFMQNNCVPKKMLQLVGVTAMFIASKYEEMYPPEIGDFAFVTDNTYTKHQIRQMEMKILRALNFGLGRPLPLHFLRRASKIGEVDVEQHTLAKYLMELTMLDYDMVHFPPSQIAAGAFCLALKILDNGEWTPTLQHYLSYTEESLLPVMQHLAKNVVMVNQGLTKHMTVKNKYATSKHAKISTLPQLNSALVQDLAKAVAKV
Briefly: NanoBRET Target Engagement (TE) Intracellular Kinase Assay, CDK1/CCNB1. The settings on record: NanoBRET TE intracellular kinase assay, 2-hour incubation, read-out: NanoBRET-CDK1/B1 IC50. It is filed as cell-based. In short, it runs like this: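 IC50 derived by four-parameter logistic fit of DMSO-normalized acceptor/donor (610/450 nm) BRET ratio. Compound and Tracer K-10 were applied together for 2 h at 37° C to 293 or 293T cells transfected 24 h earlier with CDK1-NanoLuc fusion and cyclin B1.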

Where [5] appears, read: NanoBRET TE intracellular kinase assay, read-out: NanoBRET-CDK2/E1 IC50.
The mark [6] stands for this setting: OVCAR3 cells, Phospho-Rb Ser807/811 HTRF, 1 hour incubation.
[7] abbreviates: NanoBRET-CDK2/E1 IC50, NanoBRET TE intracellular kinase assay.

Turning to `CC(C)NC(=O)O[C@@H]1CC[C@H](c2cc(Nc3cc(Oc4cccc(O)c4C=O)ccn3)n[nH]2)C1` [Compound 13, (1R,3S)-3-(5-{[4-(2-formyl-3-hydroxyphenoxy)pyridin-2-yl]amino}-2H-pyrazol-3-yl)cyclopentyl N-isopropylcarbamate; trifluoroacetic acid], the pIC50 is 5.33 in assay [1], 7.91 in assay [2] (setting [5]), 6.15 in assay [3] (setting [6]) and 7.03 in assay [4]. Also, the “Observed mass value of the covalent complex between compound and CDK2 protein” value (shortened to “Observed mass value”) at pCDK2-CCNE1 proteins was 34546 Da. The “Covalent complex formation with CDK2 protein (intact mass spectra after sodium borohydride reduction)” value at pCDK2-CCNE1 proteins was “formed a covalent complex with CDK2 protein”. The “Binding pocket by competition: complex formation in presence of molar excess PF-06873600” value (“Binding pocket by competition” for short) on pCDK2-CCNE1 proteins is given as “bound to the same binding pocket of CDK2 as the competitor molecule PF-06873600”.
Regarding `CC(C)NC(=O)O[C@@H]1CC[C@H](c2cc(NC(=O)Cc3cnn(-c4cccc(O)c4C=O)c3)n[nH]2)C1` [Compound 16, (1R,3S)-3-(5-{2-[1-(2-formyl-3-hydroxyphenyl)pyrazol-4-yl]acetamido}-2H-pyrazol-3-yl)cyclopentyl N-isopropylcarbamate; trifluoroacetic acid], the pIC50 is 6.20 in assay [1], 7.46 in assay [2] (setting [7]), 6.23 in assay [3] and 7.12 in assay [4]. The “Observed mass value” value on pCDK2-CCNE1 proteins was 34561 Da. Moreover, the “Covalent complex formation with CDK2 protein (intact mass spectra after sodium borohydride reduction)” value at pCDK2-CCNE1 proteins is recorded as “formed a covalent complex with CDK2 protein”. Moreover, the “Binding pocket by competition” value at pCDK2-CCNE1 proteins is given as “bound to the same binding pocket of CDK2 as the competitor molecule PF-06873600”.
Turning to `CC(C)NC(=O)O[C@@H]1CC[C@H](c2cc(NC(=O)c3cc(-c4cccc(O)c4C=O)nn3C)n[nH]2)C1` [Compound 17, (1R,3S)-3-{5-[5-(2-formyl-3-hydroxyphenyl)-2-methylpyrazole-3-amido]-2H-pyrazol-3-yl}cyclopentyl N-isopropylcarbamate 2,2,2-trifluoroacetate], the pIC50 is 5.34 in assay [1], 8.31 in assay [2] (setting [5]), 6.65 in assay [3] (setting [6]) and 7.78 in assay [4]. Also, on pCDK2-CCNE1 proteins, the “Observed mass value” value was determined as 34561 Da. In addition, the “Covalent complex formation with CDK2 protein (intact mass spectra after sodium borohydride reduction)” value on pCDK2-CCNE1 proteins (2,2,2-trifluoroacetate) is given as “formed a covalent complex with CDK2 protein; also recorded: resulted in covalent complex formation”. On pCDK2-CCNE1 proteins, the “Binding pocket by competition” value was “bound to the same binding pocket of CDK2 as the competitor molecule PF-06873600”.
For the compound `CC(C)NC(=O)O[C@@H]1CC[C@H](c2cc(NC(=O)c3cc(-c4cccc(C=O)c4O)nn3C)n[nH]2)C1` [Compound 18, (1R,3S)-3-{5-[5-(3-formyl-2-hydroxyphenyl)-2-methylpyrazole-3-amido]-2H-pyrazol-3-yl}cyclopentyl N-isopropylcarbamate trifluoroacetic acid], the pIC50 in assay [1] was 5.79; in assay [2] (setting [5]) it was 7.94; in assay [3] (setting [6]) it was 5.33; in assay [4] it was 6.15. Besides, the “Covalent complex formation with CDK2 protein (intact mass spectra after sodium borohydride reduction)” value on pCDK2-CCNE1 proteins is recorded as “resulted in covalent complex formation”.
For `COc1cc(O)c(C=O)c(CCC(=O)Nc2cc([C@H]3CC[C@@H](OC(=O)NC(C)C)C3)[nH]n2)c1` [Compound 22, (1R,3S)-3-(3-(3-(2-formyl-3-hydroxy-5-methoxyphenyl)propanamido)-1H-pyrazol-5-yl)cyclopentyl isopropylcarbamate 2,2,2-trifluoroacetate], the pIC50 is 5.43 in assay [1], 8.32 in assay [2] (setting [5]), 6.70 in assay [3] (setting [6]) and 7.00 in assay [4]. Further, the “Observed mass value” value on pCDK2-CCNE1 proteins (2,2,2-trifluoroacetate) is 34538-34539 Da and 34539 Da. Further, the “Covalent complex formation with CDK2 protein (intact mass spectra after sodium borohydride reduction)” value on pCDK2-CCNE1 proteins was “formed a covalent complex with CDK2 protein”. Besides, the “Binding pocket by competition” value on pCDK2-CCNE1 proteins is “bound to the same binding pocket of CDK2 as the competitor molecule PF-06873600”.
Consider `CC(C)NC(=O)O[C@@H]1CC[C@H](c2cc(NC(=O)[C@@H](C)Oc3cccc(O)c3C=O)n[nH]2)C1` [Compound 32, (1R,3S)-3-{5-[(2R)-2-(2-formyl-3-hydroxyphenoxy)propanamido]-2H-pyrazol-3-yl}cyclopentyl N-isopropylcarbamate], for which the pIC50 was 5.31 in assay [1], 8.33 in assay [2] (setting [5]), 6.45 in assay [3] (setting [6]) and 7.28 in assay [4]. Further, the “Observed mass value” value on pCDK2-CCNE1 proteins stood at 34525 Da. Moreover, the “Covalent complex formation with CDK2 protein (intact mass spectra after sodium borohydride reduction)” value at pCDK2-CCNE1 proteins was “formed a covalent complex with CDK2 protein”. The “Binding pocket by competition” value at pCDK2-CCNE1 proteins is “bound to the same binding pocket of CDK2 as the competitor molecule PF-06873600”.
As for `CC(C)NC(=O)O[C@@H]1CC[C@H](c2cc(NC(=O)Nc3ccc(O)c(C=O)c3)n[nH]2)C1` [Compound 33, (1R,3S)-3-(5-{[(3-formyl-4-hydroxyphenyl)carbamoyl]amino}-2H-pyrazol-3-yl)cyclopentyl N-isopropylcarbamate], the pIC50 in assay [1] is 6.44; in assay [2] (setting [5]) it was 7.95; in assay [3] (setting [6]), 6.44; in assay [4] it was 7.15. Further, at pCDK2-CCNE1 proteins, the “Covalent complex formation with CDK2 protein (intact mass spectra after sodium borohydride reduction)” value is listed as “resulted in covalent complex formation”.
On to `CC(C)NC(=O)O[C@@H]1CC[C@H](c2cc(NC(=O)c3cc(-c4c(F)ccc(O)c4C=O)nn3C)n[nH]2)C1` [Compound 45, (1R,3S)-3-(3-(3-(6-fluoro-2-formyl-3-hydroxyphenyl)-1-methyl-1H-pyrazole-5-carboxamido)-1H-pyrazol-5-yl)cyclopentyl isopropylcarbamate], for which the pIC50 in assay [1] is 5.80; in assay [2] (setting [7]) it was 8.55; in assay [3] (setting [6]), 6.94; in assay [4] it was 8.17. For the same compound, the “Observed mass value” value on pCDK2-CCNE1 proteins was determined as 34579 Da.
Turning to `CC(=O)Nc1cccc(OCC(=O)Nc2cc([C@H]3CC[C@@H](OC(=O)NC(C)C)C3)[nH]n2)c1C=O` [Compound 46, (1R,3S)-3-{5-[2-(3-acetamido-2-formylphenoxy)acetamido]-2H-pyrazol-3-yl}cyclopentyl N-isopropylcarbamate], the pIC50 is 5.38 in assay [1], 7.69 in assay [2] (setting [5]), 5.62 in assay [3] (setting [6]) and 6.16 in assay [4]. For the same compound, the “Covalent complex formation with CDK2 protein (intact mass spectra after sodium borohydride reduction)” value on pCDK2-CCNE1 proteins was “resulted in covalent complex formation”.
Turning to `CC(C)NC(=O)O[C@@H]1CC[C@H](c2cc(NC(=O)COc3cccc(NS(C)(=O)=O)c3C=O)n[nH]2)C1` [Compound 49, (1R,3S)-3-{5-[2-(2-formyl-3-methanesulfonamidophenoxy)acetamido]-2H-pyrazol-3-yl}cyclopentyl N-isopropyl carbamate], the pIC50 in assay [1] was < 5.00; in assay [2] (setting [5]) it was 7.61; in assay [3] (setting [6]) it was 6.79; in assay [4] it was 7.15. On pCDK2-CCNE1 proteins, the “Observed mass value” value is given as 34588 Da.
For `CNC(=O)O[C@@H]1CC[C@H](c2cc(NC(=O)c3cc(-c4cccc(O)c4C=O)nn3C)n[nH]2)C1` [Compound 50, (1R,3S)-3-{5-[5-(2-formyl-3-hydroxyphenyl)-2-methylpyrazole-3-amido]-2H-pyrazol-3-yl}cyclopentyl N-methylcarbamate; trifluoroacetic acid], the pIC50 is < 5.00 in assay [1], 8.06 in assay [2] (setting [5]), 6.42 in assay [3] (setting [6]) and 7.30 in assay [4]. Also, the “Covalent complex formation with CDK2 protein (intact mass spectra after sodium borohydride reduction)” value at pCDK2-CCNE1 proteins is recorded as “resulted in covalent complex formation”.
